Read-outs that look alike come from different tables or passages of the source.
Columns and labels:
[1] = tested on: GM-CSF induced STAT5 phosphorylation mediated by the JAK2/JAK2 homdimeric complex; assay: GM-CSF Induced pSTAT5 in Human PBMC; conditions: GM-CSF 5 ng/mL for 20 minutes, pSTAT5
From the text: Human PBMC are isolated from buffy coat and are stored frozen for assays as needed.

[2] = tested on: IL-12 induced STAT4 phophorylation mediated by Tyk2/JAK2 (heterodimeric complex); assay: IL-12 Induced pSTAT4 in Human PBMC; type: cell-based; conditions: 1.7 ng/mL IL-12
From the text: The IL-12 Induced pSTAT4 assay evaluates the inhibition of IL-12 induced STAT4 phophorylation mediated by Tyk2/JAK2 (heterodimeric complex).

[3] = Homo sapiens, PBMC, 20 min, read-out: PBMC_GMCSF_pSTAT5 IC50, human PBMC
[4] = read-out: PBMC_GMCSF_pSTAT5 IC50, human PBMC

Structure (SMILES)	IC50 [1, 3] [µM]	IC50 [2] [µM]	IC50 [1, 4] [µM]
CNc1cc(-c2cn(CCN3CCCCC3)c3ncccc23)nc2c(C(=O)N[C@H]3C[C@H]3F)cnn12 [I-585]	> 12.5	< 0.1	
CNc1cc(-c2cn([C@H]3CCCOC3)c3ncccc23)nc2c(C(=O)N[C@H]3CC[C@@H]3OC)cnn12 [I-1365]		< 0.1	
CNc1cc(Nc2cc(F)cnc2OCCOC)nc2c(C(=O)NC3CCC3)cnn12 [I-290]	> 2.5	< 0.1	
CNc1cc(Nc2cccnc2OC2CC2)nc2c(C(=O)N[C@H]3CC[C@@H]3O)cnn12 [I-397]	> 50	< 0.1	
CNc1cc(Nc2cccnc2OC2CC2)nc2c(C(=O)N[C@H]3COC[C@H]3O)cnn12 [I-547]	> 50	0.1 to 0.5	
CNc1cc(Nc2cccn([C@H]3CCN(CCF)C3)c2=O)nc2c(C(=O)N[C@H]3CC[C@@H]3OC)cnn12 [I-1381]		< 0.1	
CNc1cc(Nc2cccn([C@H]3CC[C@H](OC)CC3)c2=O)nc2c(C(=O)NC3CC3)cnn12 [I-343]	> 12.5	< 0.1	
CNc1cc(Nc2cccn([C@@H]3CCCN(CCF)C3)c2=O)nc2c(C(=O)N[C@H]3CC[C@@H]3OC)cnn12 [I-1382]		< 0.1	
CNc1cc(Nc2cccn([C@H]3CC[C@@H]3O)c2=O)nc2c(C(=O)N[C@H]3CC[C@@H]3OC)cnn12 [I-1385]		< 0.1	
CNc1cc(Nc2cccn([C@H]3CC[C@@](C)(O)CC3)c2=O)nc2c(C(=O)N[C@H]3C[C@H]3F)cnn12 [I-370]		< 0.1	
CNc1cc(Nc2cccn([C@H]3CC[C@](C)(O)CC3)c2=O)nc2c(C(=O)N[C@H]3C[C@H]3F)cnn12 [I-372]		< 0.1	
CNc1cc(Nc2cccn([C@@H]3CC[C@@H]3O)c2=O)nc2c(C(=O)N[C@@H]3CC[C@H]3OC)cnn12 [I-1350]		< 0.1	
CNc1cc(Nc2cccn(C3CC(F)(F)C3)c2=O)nc2c(C(=O)N[C@H]3CC[C@@H]3OC)cnn12 [I-1389]		< 0.1	
CNc1cc(Nc2cccn(-c3ccccn3)c2=O)nc2c(C(=O)N[C@@H]3C[C@H]3OC)cnn12 [I-1286]		< 0.1	
CNc1cc(-c2cn(CCCO)c3ncccc23)nc2c(C(=O)N[C@H]3CC[C@@H]3OC)cnn12 [I-1388]		< 0.1	
CNc1cc(Nc2cccn([C@H]3CC[C@](C)(O)CC3)c2=O)nc2c(C(=O)NC3CC3)cnn12 [I-371]		0.1 to 0.5	
CNc1cc(Nc2cccn(-c3nn(C)cc3C)c2=O)nc2c(C(=O)N[C@H]3C[C@H]3F)cnn12 [I-405]		0.1 to 0.5	
CNc1cc(Nc2cccn([C@H]3CCC[C@@H](OC)C3)c2=O)nc2c(C(=O)NCC(C)(C)CO)cnn12 [I-861]		< 0.1	
CNc1cc(-c2cn([C@@H]3CCN(CCF)C3)c3ncccc23)nc2c(C(=O)N[C@@H]3C[C@@H]3F)cnn12 [I-1366]		< 0.1	
CNc1cc(Nc2cccn(-c3ccc(F)cc3)c2=O)nc2c(C(N)=O)cnn12 [I-9]		0.1 to 0.5	
CNc1cc(Nc2cccn([C@H]3CCCN(CCF)C3)c2=O)nc2c(C(=O)N[C@@H]3C[C@@H]3F)cnn12 [I-900]		< 0.1	
CNc1cc(Nc2cccn([C@H]3CCC[C@H](O)C3)c2=O)nc2c(C(=O)N[C@H]3CC[C@@H]3OC)cnn12 [I-1063]	> 50		
CNC(=O)c1occc1Nc1cc(NC)n2ncc(C(=O)N[C@H]3CC[C@@H]3OC)c2n1 [I-1323]		< 0.1	
CNc1cc(Nc2cccn([C@H]3CC[C@](C)(OC)CC3)c2=O)nc2c(C(=O)N[C@@H]3CC[C@H]3O)cnn12 [I-962]			> 50
CNc1cc(Nc2cccn(-c3nn(C)cc3F)c2=O)nc2c(C(=O)N[C@@H]3C[C@@H]3F)cnn12 [I-1321]		< 0.1	
CNc1cc(Nc2cccn([C@@H]3CCC[C@@H](OC)C3)c2=O)nc2c(C(=O)N[C@H]3CC[C@@H]3OC)cnn12 [I-1331]		< 0.1	
CNc1cc(Nc2cccc(N3CCCC3=O)n2)nc2c(C(=O)N[C@H]3CC[C@H]3O)cnn12 [I-969]	> 50		
CNc1cc(Nc2cccn([C@@H]3CCN(CCF)C3)c2=O)nc2c(C(=O)N[C@@H]3CC[C@H]3OC)cnn12 [I-1333]		< 0.1	

Now from value to molecule:

IC50 [1, 3] [µM]	IC50 [2] [µM]	IC50 [1, 4] [µM]	Structure (SMILES)
> 2.5	< 0.1		CNc1cc(Nc2cccn([C@H]3CC[C@@H](OC)CC3)c2=O)nc2c(C(=O)N[C@H]3C[C@H]3F)cnn12 [I-357]
> 2.5	< 0.1		CNc1cc(Nc2cccn(-c3cnco3)c2=O)nc2c(C(=O)N[C@@H]3C[C@@H]3F)cnn12 [I-762]
> 50	< 0.1		CNc1cc(Nc2cccn(C[C@@H]3CCCCO3)c2=O)nc2c(C(=O)N[C@@H]3C[C@@H]3F)cnn12 [I-428]
> 50	< 0.1		CNc1cc(Nc2cccnc2OC2CC2)nc2c(C(=O)NC3CCC3O)cnn12 (stereo in doubt) [I-366, 5-((2-cyclopropoxypyridin-3-yl)amino)-N-((1R,2R)-2-hydroxycyclobutyl)-7-(methylamino)pyrazolo[1,5-a]pyrimidine-3-carboxamide]
	< 0.1	> 2.5	CNc1cc(Nc2cccn(-c3ccccn3)c2=O)nc2c(C(=O)N[C@@H]3CC[C@H]3OC)cnn12 (stereo in doubt) [I-816, N-(2-methoxycyclobutyl)-7-(methylamino)-5-((2-oxo-2H-[1,2′-bipyridin]-3-yl)amino)pyrazolo[1,5-a]pyrimidine-3-carboxamide]
	< 0.1		CNc1cc(Nc2cccn([C@H]3CCC[C@H]3O)c2=O)nc2c(C(=O)N[C@H]3CC[C@@H]3OC)cnn12 [I-1373]
> 50	< 0.1		CNc1cc(Nc2cc(F)cnc2OCCOC)nc2c(C(=O)N[C@H]3C[C@H]3F)cnn12 [I-285]
> 50	0.1 to 0.5		CNc1cc(Nc2cc(F)cnc2OC(C)C)nc2c(C(=O)N[C@H]3C[C@H]3F)cnn12 [I-211]
> 50	< 0.1		CNc1cc(Nc2cccnc2OC2CC2)nc2c(C(=O)NC3CCC3O)cnn12 (stereo not shown) [I-392, 5-((2-cyclopropoxypyridin-3-yl)amino)-N-(2-hydroxycyclobutyl)-7-(methylamino)pyrazolo[1,5-a]pyrimidine-3-carboxamide]
> 2.5	< 0.1		CNc1cc(Nc2cccn(C3CC4(COC4)C3)c2=O)nc2c(C(=O)N[C@@H]3C[C@@H]3F)cnn12 [I-551, N-((1R,2S)-2-fluorocyclopropyl)-7-(methylamino)-5-((2-oxo-1-(2-oxaspiro[3.3]heptan-6-yl)-1,2-dihydropyridin-3-yl)amino)pyrazolo[1,5-a]pyrimidine-3-carboxamide]
	< 0.1		CNc1cc(Nc2cccn([C@@H]3CC[C@H]3O)c2=O)nc2c(C(=O)N[C@@H]3CC[C@H]3OC)cnn12 [I-1309]
	< 0.1		CNc1cc(Nc2cccn([C@@H]3CCCOC3)c2=O)nc2c(C(=O)NC3CC3)cnn12 [I-351]
	< 0.1		CNc1cc(-c2cn(CCCO)c3ncccc23)nc2c(C(=O)N[C@@H]3CC[C@H]3OC)cnn12 [I-1299]
	> 1		CNc1cc(Nc2cccn(-c3nn(C)cc3C)c2=O)nc2c(C(=O)NC3CC3)cnn12 [I-404]
	< 0.1		CNc1cc(Nc2cccn(-c3cnn(C)c3F)c2=O)nc2c(C(=O)N[C@H]3CC[C@@H]3OC)cnn12 [I-1369]
	< 0.1		CNc1cc(-c2cn([C@H]3CCCOC3)c3ncccc23)nc2c(C(=O)N[C@H]3CC[C@@H]3OC)cnn12 [I-1283]
	< 0.1		CNc1cc(Nc2cccn([C@H]3[C@@H]4COC[C@@H]43)c2=O)nc2c(C(=O)N[C@@H]3CC[C@H]3OC)cnn12 [I-1354]

IC50 [1, 3] [µM]	IC50 [2] [µM]	IC50 [1, 4] [µM]	Structure (SMILES)
	< 0.1		CNc1cc(Nc2cccn3cnnc23)nc2c(C(=O)N[C@H]3CC[C@@H]3OC)cnn12 [I-1343]
	< 0.1		CNc1cc(Nc2cccn([C@H]3CCC[C@@H](O)C3)c2=O)nc2c(C(=O)N[C@H]3CC[C@@H]3OC)cnn12 [I-1296]
	> 1		CNc1cc(Nc2cccn(-c3ncccc3F)c2=O)nc2c(C(=O)O)cnn12 [I-893, 5-((3′-fluoro-2-oxo-2H-[1,2′-bipyridin]-3-yl)amino)-7-(methylamino) pyrazolo[1,5-a]pyrimidine-3-carboxylic acid]
	< 0.1		CNc1cc(Nc2cccn([C@H]3CCC[C@H](OC)C3)c2=O)nc2c(C(=O)N[C@@H]3CC[C@H]3OC)cnn12 [I-1374]
	< 0.1		CNc1cc(-c2cn(C3CCOCC3)c3ncc(F)cc23)nc2c(C(=O)N[C@H]3CC[C@@H]3O)cnn12 [I-1314]
	< 0.1		CNc1cc(-c2cn([C@@H]3CCCOC3)c3ncccc23)nc2c(C(=O)N[C@H]3CC[C@@H]3OC)cnn12 [I-1364]
	< 0.1		CNc1cc(Nc2cccn([C@@H]3CC[C@@H]3O)c2=O)nc2c(C(=O)N[C@H]3CC[C@@H]3OC)cnn12 [I-1411]
	< 0.1		CNc1cc(Nc2cccn([C@H]3CCC[C@H](O)C3)c2=O)nc2c(C(=O)N[C@@H]3CC[C@H]3OC)cnn12 [I-1395]
	< 0.1		[2H]C([2H])([2H])Oc1ncccc1Nc1cc(NC)n2ncc(C(=O)N[C@H]3CC[C@@H]3O)c2n1 [I-411]
> 2.5			CNc1cc(Nc2cccn([C@@H]3CCC[C@@H](O)C3)c2=O)nc2c(C(=O)N[C@@H]3C[C@@H]3F)cnn12 [I-1029]
	< 0.1		CNc1cc(-c2cn(C3CC3)c3ncccc23)nc2c(C(=O)N[C@H]3CC[C@@H]3OC)cnn12 [I-1325]
	< 0.1		CNc1cc(-c2cn(C3CCOCC3)c3ncccc23)nc2c(C(=O)N[C@@H]3CC[C@H]3OC)cnn12 [I-1328]
> 50			CNc1cc(Nc2cccn([C@H]3CCC[C@H](OC)C3)c2=O)nc2c(C(=O)NC3CC3)cnn12 [I-1025]
> 12.5			CNc1cc(Nc2cccn(-c3cccc(F)c3)c2=O)nc2c(C(=O)N[C@H]3CC[C@H]3O)cnn12 [I-1004]
	< 0.1		CNc1cc(Nc2cccn3ccnc23)nc2c(C(=O)N[C@@H]3CC[C@H]3OC)cnn12 [I-1133]
> 50			CNc1cc(Nc2cccn([C@@H]3CCC[C@@H](OC)C3)c2=O)nc2c(C(=O)NC3CC3)cnn12 [I-957]
	< 0.1		CNc1cc(Nc2cccn([C@H]3CCCC[C@H]3OC)c2=O)nc2c(C(=O)N[C@H]3CC[C@@H]3OC)cnn12 [I-1377]
